Measured values as given in patent publication US4973591A, “Parenteral formulations of 1-diphenylmethyl-4-((2-(4-methylphenyl)-5-methyl-1H-imidazol-4-yl)methyl )piperazine” (Syntex Pharmaceuticals, Ltd., priority 1988, dated 1990).
Structures can show the parent of a compound that is named as a salt.

Experiments:
pH of salt solutions = type: physicochemical
calcium channel = conditions: statement in background; cited from earlier work
[1] = solubility of active agent, its salts and cosolvent solutions; conditions: for solubility (in words): salts of the active agent
[2] = precipitation on dropping the injectable formulation into pH 7.4 phosphate buffer; type: physicochemical; conditions: approx. 1 ml injectable formulation into 50 ml 0.1M pH 7.4 phosphate buffer
rat tail vein = rat tail vein injection (irritation / in vivo acceptability)
Method: In vivo acceptability is tested by injecting a small amount of the formulation into the tail vein of a rat or other suitable species, for example, as described by Waynforth, Experimental and Surgical Technique in the Rat, Chapter 2, pages 42-45 (Academic Press, 1980).
This procedure is a modification of a procedure described by Waynforth in Experimental and Surgical Technique in the Rat, Chapter 2, pages 42-45 (Academic Press, 1980). The rat tail vein is dilated by warming, and a test formulation administered by injection, using a 25G needle, with the rat held in a restrainer, and a heat source close enough to keep the tail warm during injection. The tail is observed for signs of irritation, which are outwardly apparent and can be detected by the presence of bruising, swelling, lack of flexibility, lumps, or by observation of distress in the animal upon subsequent administration.

[3] = stability testing of formulations at 25° C. (content, pH, appearance); type: physicochemical
Method: Stability testing of the formulations is done, for example, as described in Remington's Pharmaceutical Sciences. […] A formulation is prepared and placed in suitable container, storing it at 25° C., and periodically observing the appearance of the samples and removing aliquots to be tested for concentration and pH.
At periodic intervals, the appearance of the samples was noted, and aliquots were withdrawn and assayed for active agent concentration and pH.

[4] = compatibility with infusion fluids; type: physicochemical; conditions: wide range of commercially available infusion fluids
Method: Compatibility with infusion fluids is determined by adding a formulation of the invention to an infusion fluid and inspecting the resulting mixture for formation of any precipitate, discoloration, or the appearance of other physical changes, monitoring the solution active ingredient concentration to ensure no loss in potency, which could lead to decreases in efficacy.

[5] = in vivo; cited from earlier work

With `Cc1ccc(-c2nc(CN3CCN(C(c4ccccc4)c4ccccc4)CC3)c(C)[nH]2)cc1` the “pH relative to optimum range for physiological compatibility” value (pH of salt solutions; when prepared at the desired concentrations) was “outside the optimum pH range for physiological compatibility”.

For `Cc1ccc(-c2nc(CN3CCN(C(c4ccccc4)c4ccccc4)CC3)c(C)[nH]2)cc1` [1-Diphenylmethyl-4-[(2-(4-methylphenyl)-5-methyl-1H-imidazol-4-yl)methyl]piperazine], the calcium channel antagonist (calcium channel) is given as “potent calcium channel antagonist” and the solubility problems ([1]; particularly at physiological pH, in formulation process and upon administration to test animals) is given as “significant solubility problems”.

With `Cc1ccc(-c2nc(CN3CCN(C(c4ccccc4)c4ccccc4)CC3)c(C)[nH]2)cc1.Cl.Cl.Cl` [1-diphenylmethyl-4-[(2-(4-methylphenyl)-5-methyl-1H-imidazol-4-yl)methyl]piperazine, trihydrochloride] the precipitate at interface [2] was “a white precipitate was observed immediately at the interface between the two liquids”, the “signs of pain / irritation upon injection” value (rat tail vein; 8 mg/ml solution, pH about 3-3.5, rat tail vein) was “bruising of the vein, hardening of the tail and other signs of pain upon injection” and the “compound precipitation in rat tail veins” value (rat tail vein; 8 mg/ml solution, pH about 3-3.5 adjusted with sodium hydroxide, shortly after injection) was “compound precipitation was observed in rat tail veins shortly after injection”.

For `Cc1ccc(-c2nc(CN3CCN(C(c4ccccc4)c4ccccc4)CC3)c(C)[nH]2)cc1` [ascorbic acid salt], the “discolouration of solutions upon standing” value ([3]; solutions of ascorbic acid salt, on standing) was “rapid discolouration upon standing” and the “solubility (in words)” value [1] was “relatively insoluble”.

With `Cc1ccc(-c2nc(C)c(CN3CCN(C(c4ccccc4)c4ccccc4)CC3)[nH]2)cc1` [aspartic] the “changes in properties of salts” value ([1]; salts investigated for adequate solubility at physiologically acceptable pH and reduced irritancy) was “only moderate changes in properties”.

For `Cc1ccc(-c2nc(C)c(CN3CCN(C(c4ccccc4)c4ccccc4)CC3)[nH]2)cc1` [malonic], the “solubility (in words)” value [1] was “did not have adequate solubility”.

For `Cc1ccc(-c2nc(C)c(CN3CCN(C(c4ccccc4)c4ccccc4)CC3)[nH]2)cc1` [oxalic], the “solubility (in words)” value [1] was “did not have adequate solubility”.

In the case of `Cc1ccc(-c2nc(CN3CCN(C(c4ccccc4)c4ccccc4)CC3)c(C)[nH]2)cc1` [sulfuric acid salt], the pH in solution (pH of salt solutions) is reported as 1.76.

For `Cc1ccc(-c2nc(CN3CCN(C(c4ccccc4)c4ccccc4)CC3)c(C)[nH]2)cc1.O=C(O)C(O)C(O)C(=O)O` [tartrate salt, 1-diphenylmethyl-4-[(2-(4-methylphenyl)-5-methyl-1H -imidazol-4-yl)methyl]piperazine tartrate], the “compatibility with infusion fluids” value [4] was “compatible with a wide range of commercially available infusion fluids”, the “physical and chemical stability of the solution” value ([3]; storage at 25° C.) was “at least 12 months” and the pH in solution (pH of salt solutions) was “greater than 3.0”. The “administration over 28 days” value (rats) was “successful administration”, the solubility (physchem) was greater than 4000 µg/mL and the “administration over 28 days” value (baboons) was “successful administration”. For the same compound, the irritancy levels (rat tail vein; one week tail vein injection trial) was “Acceptable irritancy levels”.

For `Clc1ccccc1CN1CCc2sccc2C1` [ticlopidine], the “reduction of the risk of a second ischemic event” value [5] is given as “demonstrated to reduce the risk of a second ischemic event”.
